Like-named read-outs stand apart in the source and are kept apart here.
Target: human APJ receptor (Homo sapiens (Human), UniProt P35414)
Experiment: biochemical
Type: biochemical
Outline: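 [35S]GTPγS binding to membranes from CHO cells stably expressing human APJ, captured on WGA PS beads (5 μg/well). Buffer: 20 mM HEPES pH 7.5, 5 mM MgCl2, 100 mM NaCl, 0.1% BSA, with 3 μM GDP and 0.1 nM [35S]GTPγS final; compounds tested as 22-point 2-fold dilutions.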

[1] = read-out: Activity hAPJ SPA EC50 IP
[2] = [35S]GTPγS binding, membranes from CHO cells stably expressing human APJ receptor, read-out: Activity hAPJ SPA EC50 IP

Chain of human APJ receptor (P35414 whole entry): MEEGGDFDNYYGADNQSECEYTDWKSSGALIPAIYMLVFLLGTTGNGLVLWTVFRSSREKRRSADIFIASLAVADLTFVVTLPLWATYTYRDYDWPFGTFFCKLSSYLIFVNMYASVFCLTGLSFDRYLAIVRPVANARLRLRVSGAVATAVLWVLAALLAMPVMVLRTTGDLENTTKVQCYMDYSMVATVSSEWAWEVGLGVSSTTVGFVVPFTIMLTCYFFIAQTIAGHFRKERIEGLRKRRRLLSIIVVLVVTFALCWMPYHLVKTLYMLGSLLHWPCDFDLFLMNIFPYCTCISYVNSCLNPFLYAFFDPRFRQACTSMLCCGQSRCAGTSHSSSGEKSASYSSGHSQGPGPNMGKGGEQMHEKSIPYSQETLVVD

Compound | EC50 [1] [nM] | EC50 [2] [nM] | other results
COCc1nnc(NS(=O)(=O)[C@@H](C)[C@H](OC)c2ncc(Cl)cn2)n1-c1c(OC)ncnc1OC [Example 58.0, (1R,2S)-1-(5-chloropyrimidin-2yl)-N-(4-(4.6-dimethoxypyrimidin-5-yl)-5-(methoxymethyl)-4H-l,2,4-triazol-3-yl)-1-methoxypropane-2-sulfonamide] | 330 | – | –
COCc1nnc(NS(=O)(=O)[C@@H](C)[C@H](OC)c2ncc(Cl)cn2)n1C1(C)CC1 [Example 59.0, (1R,2S)-1-(5-chloropyrimidin-2-yl)-1-methoxy-N-(5-(methoxymethyl)-4-(1-methylcyclopropyl)-4H-1,2,4-triazol-3-yl)propane-2-sulfonamide] | – | 33 | –
COCc1nnc(NS(=O)(=O)[C@@H](C)[C@H](OC)c2ncc(C)cn2)n1-c1c(OC)cccc1OC [Example 60.0, (1R,2S)-N-(4-(2.6-dimethoxyphenyl)-5-(methoxymethyl)-4H-1.2,4-triazol-3-yl)-1-methoxy-1-(5-methylpyrimidin-2-yl)propane-2-sulfonamide] | 22 | – | –
COCc1nnc(NS(=O)(=O)[C@@H](C)[C@H](C)c2ncc(C)cn2)n1-c1c(OC)cccc1OC [Example 61.0, (2S,3R)-N-(4-(2,6-dimethoxyphenyl)-5-(methoxymethyl)-4H-1.2.4-triazol-3-yl)-3-(5-methylpyrimidin-2-yl)butane-2-sulfonamide] | 6.7 | – | –
COCc1nnc(NS(=O)(=O)[C@@H](C)[C@@H](OC(C)C)c2ncc(C)cn2)n1-c1c(OC)cccc1OC [Example 62.0, (1S,2S)-N-(4-(2,6-dimethoxyphenyl)-5-(methoxymethyl)-4H-1,2,4-triazol-3-yl)-1-isopropoxy-1-(5-methylpyrimidin-2-yl)propane-2-sulfonamide] | 1000 | – | –
COCc1nnc(NS(=O)(=O)[C@@H](C)[C@H](OC)c2ncc(Cl)cn2)n1C1CCOCC1 [Example 63.0, (1R, 2S)-1-(5-chloropyrimidin-2-yl)-1-methoxy-N-(5-(methoxymethyl)-4-(tetrahydro-2H-pyran-4-yl)-4H-1,2,4-triazol-3-yl)propane-2-sulfonamide] | – | 10 | –
COc1cccc(OC)c1-n1c(CO)nnc1NS(=O)(=O)[C@@H](C)[C@H](OC)c1ncc(Cl)cn1 [Example 64.0, (1R,2S)-1-(5-chloropyrimidin-2-yl)-N-(4-(2,6-dimethoxyphenyl)-5-(hydroxymethyl)-4H-1.2.4-triazol-3-yl)-1-methoxypropane-2-sulfonamide] | 20 | – | –
COc1cccc(OC)c1-n1c(COC(F)F)nnc1NS(=O)(=O)[C@@H](C)[C@H](OC)c1ncc(Cl)cn1 [Example 65.0, (1R,2S)-1-(5-chloro-2-pyrimidinyl)-N-(5-((difluoromethoxy)methyl)-4-(2,6-dimethoxyphenyl)-4H-1,2,4-triazol-3-yl)-1-methoxy-2-propanesulfonamide] | – | – | EC50: 5.7 nM
COc1ncnc(OC)c1-n1c(CC(F)(F)F)nnc1NS(=O)(=O)[C@@H](C)[C@H](OC)c1ncc(Cl)cn1 [Example 67.0, (1R,2S)-1-(5-chloropyrimidin-2-yl)-N-(4-(4,6-dimethoxypyrimidine-5-yl)-5-(2.2.2-trifluoroethyl)-4H-1.2.4-triazol-3-yl)-1-methoxypropane-2-sulfonamide] | – | 230 | –
COCc1nnc(NS(=O)(=O)[C@@H](C)[C@H](C)c2ncc(F)cn2)n1-c1c(OC)cccc1OC [Example 68.0, (2S,3R)-N-(4-(2,6-dimethoxyphenyl)-5-(methoxymethyl)-4H-1,2,4-triazol-3-yl)-3-(5-fluoropyrimidin-2-yl)butane-2-sulfonamide] | 33 | – | –
COc1cccc(OC)c1-n1c(COC(C)C)nnc1NS(=O)(=O)[C@@H](C)[C@H](OC)c1ncc(Cl)cn1 [Example 69.0, (1R,2S)-1-(5-chloropyrimidin-2-yl)-N-(4-(2,6-dimethoxyphenyl)-5-(isopropoxymethyl)-4H-1,2,4-triazol-3-yl)-1-methoxypropane-2-sulfonamide] | 1.2 | – | –
CCO[C@H](c1ncc(C)cn1)[C@H](C)S(=O)(=O)Nc1nnc(COC)n1-c1c(OC)cccc1OC [Example 73.0, (1R,2S)-N-(4-(2,6-dimethoxyphenyl)-5-(methoxymethyl)-4H-1,2,4-triazol-3-yl)-1-ethoxy-1-(5-methylpyrimidin-2-yl)propane-2-sulfonamide] | 37.5 | – | –
COCc1nnc(NS(=O)(=O)[C@@H](C)[C@H](C)c2cnc(OC)cn2)n1-c1c(OC)cccc1OC [Example 74.0, (2S,3R)-N-(4-(2,6-dimethoxyphenyl)-5-(methoxymethyl)-4H-l,2,4-triazol-3-yl)-3-(5-methoxypyrazin-2-yl)butane-2-sulfonamide] | – | 16 | –
COCc1nnc(NS(=O)(=O)[C@@H](C)[C@H](C)c2ccc(Cl)cn2)n1-c1c(OC)cccc1OC [Example 75.0, (2S,3R)-3-(5-chloropyridin-2-yl)-N-(4-(2,6-dimethoxyphenyl)-5-(methoxymethyl)-4H-1,2,4-triazol-3-yl)butane-2-sulfonamide] | 3.1 | – | –
COCc1nnc(NS(=O)(=O)[C@@H](C)[C@H](OC)c2ccc(Cl)cn2)n1-c1c(OC)cccc1OC [Example 76.0, (1R,2S)-1-(5-chloropyridin-2-yl)-N-(4-(2,6-dimethoxyphenyl)-5-(methoxymethyl)-4H-1,2,4-triazol-3-yl)-1-methoxypropane-2-sulfonamide] | 4.8 | – | –
COc1ncnc(OC)c1-n1c(COC(C)C)nnc1NS(=O)(=O)[C@@H](C)[C@H](OC)c1ncc(Cl)cn1 [Example 79.0, (1R,2S)-1-(5-chloropyrimidin-2-yl)-N-(4-(4.6-dimethoxypyrimidin-5-yl)-5-(isopropoxymethyl)-4H-1,2,4-triazol-3-yl)-1-methoxypropane-2-sulfonamide] | – | 2.9 | –

Compound | EC50 [1] [nM] | EC50 [2] [nM] | other results
COc1ncnc(OC)c1-n1c(COC(C)C)nnc1NS(=O)(=O)[C@@H](C)[C@H](C)c1ncc(Cl)cn1 [Example 80.0, (2S,3R)-3-(5-chloropyrimidin-2-yl)-N-(4-(4,6-dimethoxypyrimidin-5-yl)-5-(isopropoxymethyl)-4H-1,2,4-triazol-3-yl)butane-2-sulfonamide] | – | 2.4 | –
COCc1nnc(NS(=O)(=O)[C@@H](C)[C@H](OC)c2ncc(Cl)cn2)n1C(COC)COC [Example 124.0, (1R,2S)-1-(5-Chloro-2-pyrimidinyl)-N-(4-(1,3-dimethoxy-2-propanyl)-5-(methoxymethyl)-4H-1,2,4-triazol-3-yl)-1-methoxy-2-propanesulfonamide] | – | 85 | –
COc1ncnc(OC)c1-n1c(COC(F)F)nnc1NS(=O)(=O)[C@@H](C)[C@H](C)c1ncc(Cl)cn1 [Example 127.0, (2S,3R)-3-(5-chloropyrimidin-2-yl)-N-(5-((difluoromethoxy)methyl)-4-(4,6-dimethoxypyrimidin-5-yl)-4H-1,2,4-triazol-3-yl)butane-2-sulfonamide] | – | 38 | –
COc1ncnc(OC)c1-n1c(COC(F)F)nnc1NS(=O)(=O)[C@@H](C)[C@H](OC)c1ncc(Cl)cn1 [Example 128.0, (1R,2S)-1-(5-chloropyrimidin-2-yl)-N-(5-((difluoromethoxy)methyl)-4-(4,6-dimethoxypyrimidin-5-yl)-4H-1,2,4-triazol-3-yl)-1-methoxypropane-2-sulfonamide] | – | 60 | –
[2H]C([2H])([2H])OCc1nnc(NS(=O)(=O)[C@@H](C)[C@H](OC)c2ncc(Cl)cn2)n1-c1c(OC)cccc1OC [Example 129.0, (1R,2S)-1-(5-chloro-2-pyrimidinyl)-N-(4-(2,6-dimethoxyphenyl)-5-(((˜2-H_3_)methyloxy)methyl)-4H-1,2,4-triazol-3-yl)-1-methoxy-2-propanesulfonamide] | – | – | EC50: 4.3 nM
COCc1nnc(NS(=O)(=O)[C@@H](C)[C@H](C)c2ncc(OC)cn2)n1-c1c(OC)cccc1OC [Example 130.0] | – | 12 | –
COCc1nnc(NS(=O)(=O)[C@@H](C)[C@H](OC)c2ncc(Cl)cn2)n1-c1c(F)cccc1F [Example 131.0] | – | 20 | –
COCc1nnc(NS(=O)(=O)[C@@H](C)[C@H](OC)c2ncc(Cl)cn2)n1-c1ccccc1OC [Example 132.0] | – | 11 | –
COc1ncnc(OC)c1-n1c(NS(=O)(=O)[C@@H](C)[C@H](OC)c2ncc(Cl)cn2)nnc1C(C)C [Example 133.0, (1R,2S)-1-(5-chloro-2-pyrimidinyl)-N-(4-(4,6-dimethoxy-5-pyrimidinyl)-5-(2-propanyl)-4H-1,2,4-triazol-3-yl)-1-methoxy-2-propanesulfonamide] | – | 22 | –
COCc1nnc(NS(=O)(=O)[C@@H](C)[C@@H](OC(C)C)c2ncc(Cl)cn2)n1-c1c(OC)ncnc1OC [Example 134.0] | – | 12 | –
COc1ncnc(OC)c1-n1c(COCC(F)(F)F)nnc1NS(=O)(=O)[C@@H](C)[C@H](OC)c1ncc(Cl)cn1 [Example 135.0, (1R,2S)-1-(5-chloro-2-pyrimidinyl)-N-(4-(4,6-dimethoxy-5-pyrimidinyl)-5-((2,2,2-trifluoroethoxy)methyl)-4H-1,2,4-triazol-3-yl)-1-methoxy-2-propanesulfonamide] | – | 40 | –
COc1cccc(OC)c1-n1c(NS(=O)(=O)[C@@H](C)[C@H](C)c2ncc(Cl)cn2)nnc1C(F)(F)c1ccccn1 [Example 136.0] | – | 35 | –
COc1cccc(OC)c1-n1c(NS(=O)(=O)[C@@H](C)[C@H](C)c2ncc(C)cn2)nnc1C(F)(F)c1ccccn1 [Example 137.0] | – | 230 | –
COc1ncnc(OC)c1-n1c(NS(=O)(=O)[C@@H](C)[C@H](O)c2ncc(C)cn2)nnc1C(C)(C)c1ccccc1 [Example 138.0] | – | 860 | –
CO[C@H](c1ncc(Cl)cn1)[C@H](C)S(=O)(=O)Nc1nnc(CC(F)(F)F)n1C1CCOCC1 [Example 139.0] | – | > 4200 | –
COCc1nnc(NS(=O)(=O)[C@@H](C)[C@H](OC)c2ncc(Cl)cn2)n1C1(c2cccnc2)CC1 [Example 140.0, (1R,2S)-1-(5-chloropyrimidin-2-yl)-1-methoxy-N-(5-(methoxymethyl)-4-(1-(pyridin-3-yl)cyclopropyl)-4H-1,2,4-triazol-3-yl)propane-2-sulfonamide] | – | 29 | –
